Data taken from US11607424B2, “Carbon-rich micro-particles for protecting bees and overcoming colony collapse disorder” (WASHINGTON STATE UNIVERSITY, priority 2018, dated 2023).

System: honey bees
Test: Detoxification effects: caged adult bees chronically exposed orally to 50 ppb Thiamethoxam with or without CMPs
Format: in vivo
Conditions: 50 ppb TXM, absence of CMPs
Procedure: A total of 70 plastic cages (15 cm×8 cm×10 cm) with a removable cover were used FIGS. 4A and B). Adult honey bees were collected from broods of at least seven colonies and homogenously distributed in all control and experimental cages to eliminate possible colony-level effects on the results. Cages were loaded with 100 bees per cage and then incubated in complete darkness at 30° C. and 70% relative humidity (RH). Bees were fed a sugar solution (50% w/v). The CMPs were administered at a concentration of 1% w/v in the sugar solution and delivered to experimental cages on day 2. Stock solutions of Thiamethoxam (TXM) (3-[(2-Chloro-1,3-thiazol-5-yl)methyl]-5-methyl-N-nitro-1,3,5-oxadiazinan-4-imine) were prepared from analytical grade TMX (Sigma Aldrich 37924-100MG-R) at concentration of 30 mg/L in E-pure water, and maintained at 4° C. The pesticide was administered at a concentration of 50 ppb on day 2. […]
Treatments were arranged in a completely randomized design. […] The mortality rates and feed consumption were recorded daily. Production and morphology of bee feces (frass) were assessed to ensure that CMPs passed through the bees digestive system with no harm. Bee behavior and activity (i.e. number of falls per 30 seconds, inability to climb, etc.) were also assessed. Dispensability of the CMPs in the sugar solutions were also assessed during the experiments. […]

## CN1COCN(Cc2cnc(Cl)s2)C1=N[N+](=O)[O-] [TXM, 3-[(2-Chloro-1,3-thiazol-5-yl)methyl]-5-methyl-N-nitro-1,3,5-oxadiazinan-4-imine]
  bee deaths (daily die-off) on day 2: 2.5%
  bee deaths (daily die-off) on day 5: 21%
